Assay results taken from patent US20240067613A1, “NOVEL QUINAZOLINE DERIVATIVES AS SOS1 INHIBITORS AND USE THEREOF” (HANMI PHARMACEUTICAL CO., LTD., priority 2020, published 2024).

Biological target: T1, SOS1 binding to KRAS G12C (Homo sapiens, UniProt Q07889)
T1 construct: consisting of amino acid residues 564 to 1049 which are the catalytic domain; purchased Reaction Biology Corporation MSC-11-502 (SOS1-Strep); MSC-11-538 (KRAS G12C)
T1 sequence (Q07889 564-1049): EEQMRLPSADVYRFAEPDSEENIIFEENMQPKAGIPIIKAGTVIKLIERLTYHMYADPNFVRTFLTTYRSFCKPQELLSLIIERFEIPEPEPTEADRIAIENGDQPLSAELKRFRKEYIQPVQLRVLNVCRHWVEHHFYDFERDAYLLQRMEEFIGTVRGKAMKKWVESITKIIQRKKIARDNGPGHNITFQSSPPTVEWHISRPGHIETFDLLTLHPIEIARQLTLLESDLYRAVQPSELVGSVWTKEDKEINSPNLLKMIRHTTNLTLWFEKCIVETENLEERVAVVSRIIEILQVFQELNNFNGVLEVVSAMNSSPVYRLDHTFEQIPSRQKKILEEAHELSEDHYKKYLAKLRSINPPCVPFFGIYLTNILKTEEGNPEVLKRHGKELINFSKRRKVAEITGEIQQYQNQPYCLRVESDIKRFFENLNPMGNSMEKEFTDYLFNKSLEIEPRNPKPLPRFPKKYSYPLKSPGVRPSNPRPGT
Assay: SOS1 GTP substitution inhibition test (HTRF/TR-FRET, KRAS G12C-SOS1 binding inhibitory ability)
Format: biochemical
Details: HTRF, GST-KRAS G12C (2-169), SOS1-Strep (564-1049), 1.6, 8, 40, 200, 1,000 nM
Procedure: In order to determine whether the substitution function of SOS1 binding to KRAS G12C is inhibited by the above-described example compounds, a homogeneous time-resolved fluorescence (HTRF) test was performed using G12C(#MSC-11-538) and SOS1-Strep(#MSC-11-502) purchased from Reaction Biology Corporation (MA, USA). The activity of SOS1 enzyme was determined by measuring the amount of GTP bound to KRAS G12C proteins, using the principle of time-resolved fluorescence energy transfer (TR-FRET). Based on the principle that terbium bound to the GST-binding antibody of the GST-KRAS G12C protein acts as a donor of fluorescence resonance energy transfer (FRET), and the GTP bound to the KRAS G12C protein is labeled with the fluorescent agent DY-647P1 and acts as a receiver, when the more GTP is bound to the KRAS G12C protein by the substitution reaction of SOS1 according to this test, the higher HTRF or FRET signal is measured. To summarize, glutathione S-transferase (GST)-tagged KRAS G12C proteins (consisting of amino acid residues 2 to 169) required for the reaction, streptavidin-tagged SOS1 proteins (consisting of amino acid residues 564 to 1049 which are the catalytic domain), anti-GST antibody (#61[…]) purchased from CISBIO corporation, nucleic acid (#NU-820-647P1) purchased from Jena Bioscience GmbH were mixed in a buffer solution formed from 10 mM HEPES pH7.4, 150 mM NaCl, 5 mM MgCl2, and 1 mM dithiothreitol (DTT), and the mixture was added to a 384-well plate and reacted at room temperature. Next, FRET signals were measured with a Perkin Elmer Envision microplate reader. In this case, an excitation signal (excitation) was measured at 320 nm, and an emission signal (emission) was measured at 615/665 nm. The fluorescence measurement value when the SOS1 protein was not included was calculated as a background signal value, and the background signal value was subtracted from all of the measured HTRF values. The fluorescence measurement value when the synthesized compound was not included was measured as a control value, and this value was selected as a reference point of 100%. For each of the example compounds, fluorescence was measured at concentrations of 1.6, 8, 40, 200, and 1,000 nM (5 points, 5-fold), and the 50% activity inhibition value (IC50) of each of the compounds was calculated using GraphPad Prism. When the IC50 value was 50 nM or less, the inhibitory ability was denoted as +++. When the IC50 value was more than 50 nM and 100 nM or less, the inhibitory ability was denoted as ++. When the IC50 value was more than 100 nM, the inhibitory ability was denoted as +.

Compared with COc1cc2c(N[C@H](C)c3cc(N)cc(C(F)(F)F)c3)nc(C)nc2cc1C(=O)N1CCOCC1 [Example 1, (R)-(4-((1-(3-amino-5-(trifluoromethyl)phenyl)ethyl)amino)-6-methoxy-2-methylquinazoline-7-yl)(morpholino)methanone], COc1cc2c(N[C@H](C)c3cc(N)cc(C(F)(F)F)c3)nc(C)nc2cc1C(=O)N1CCC1 [Example 7, (R)-(4-((1-(3-amino-5-(trifluoromethyl)phenyl)ethyl)amino)-6-methoxy-2-methylquinazoline-7-yl)(azetidine-1-yl)methanone] is higher in IC50: at most 50 nM for the first, over 100 nM for the second.

CNCc1ccccc1-c1csc(C(C)Nc2nc(C)nc3cc(C(=O)N4CCOCC4)c(OC)cc23)c1 (centres unmarked) [Example 2, (6-methoxy-2-methyl-4-((1-(4-(2-((methylamino)methyl)phenyl)thiophen-2-yl)ethyl)amino)quinazoline-7-yl)(morpholino)methanone] and COc1cc2c(NC(C)c3cc(-c4ccccc4CN)cs3)nc(C)nc2cc1C(=O)N1CCOCC1 (centres unmarked) [Example 13] fall in the same range of IC50: 50 to 100 nM for the first, 50 to 100 nM for the second.

COc1cc2c(N[C@H](C)c3cc(N)cc(C(F)(F)F)c3)nc(C)nc2cc1C(=O)N1C[C@@H](C)N[C@@H](C)C1 [Example 3, (4-(((R)-1-(3-amino-5-(trifluoromethyl)phenyl)ethyl)amino)-6-methoxy-2-methylquinazoline-7-yl)((3R, S)-3,5-dimethylpiperazin-1-yl)methanone] and COc1cc2c(N[C@H](C)c3cc(N)cc(C(F)(F)F)c3)nc(C)nc2cc1C(=O)N1CC(F)C1 [Example 11, (R)-(4-((1-(3-amino-5-(trifluoromethyl)phenyl)ethyl)amino)-6-methoxy-2-methylquinazoline-7-yl)(3-fluorazetidine-1-yl)methanone] cannot be ordered by IC50: over 100 nM for the first, over 100 nM for the second.

COc1cc2c(N[C@H](C)c3cc(N)cc(C(F)(F)F)c3)nc(C)nc2cc1C(=O)N1CCSCC1 [Example 4, (R)-(4-((1-(3-amino-5-(trifluoromethyl)phenyl)ethyl)amino)-6-methoxy-2-methylquinazoline-7-yl)(thiomorpholino)methanone] and COc1cc2c(N[C@H](C)c3cc(N)cc(C(F)(F)F)c3)nc(C)nc2cc1C(=O)N1CCSC1 [Example 20, (R)-(4-((1-(3-amino-5-(trifluoromethyl)phenyl)ethyl)amino)-6-methoxy-2-methylquinazolin-7-yl)(thiazolidine-3-yl)methanone] cannot be ordered by IC50: 50 to 100 nM for the first, at most 50 nM for the second.

Going from COc1cc2c(N[C@H](C)c3cc(N)cc(C(F)(F)F)c3)nc(C)nc2cc1C(=O)N1CC2COCC2C1 (stereo partly drawn) [Example 5, (4-(((R)-1-(3-amino-5-(trifluoromethyl)phenyl)ethyl)amino)-6-methoxy-2-methylquinazoline-7-yl)(tetrahydro-1H-furo[3,4-c]pyrrol-5(3H)-yl)methanone] to COc1cc2c(N[C@H](C)c3cc(N)cc(C(F)(F)F)c3)nc(C)nc2cc1C(=O)N1CCNCC1 [Example 9, (R)-(4-((1-(3-amino-5-(trifluoromethyl)phenyl)ethyl)amino)-6-methoxy-2-methylquinazoline-7-yl)(piperazine-1-yl)methanone], the IC50 falls from over 100 nM to at most 50 nM.

COc1cc2c(N[C@H](C)c3cccc(C(F)F)c3F)nc(C)nc2cc1C(=O)N1CCOCC1 [Example 6, (R)-(4-((1-(3-(difluoromethyl)-2-fluorophenyl)ethyl)amino)-6-methoxy-2-methylquinazoline-7-yl)(morpholino)methanone] and COc1cc2c(N[C@H](C)c3cc(N)cc(C(F)F)c3F)nc(C)nc2cc1C(=O)N1CCOCC1 [Example 26, (R)-(4-((1-(5-amino-3-(difluoromethyl)-2-fluorophenyl)ethyl)amino)-6-methoxy 2-methylquinazolin-7-yl)(morpholino)methanone] cannot be ordered by IC50: 50 to 100 nM for the first, at most 50 nM for the second.

COc1cc2c(NC(C)c3cc(-c4cccc5c4CNCC5)cs3)nc(C)nc2cc1C(=O)N1CCOCC1 (centres unmarked) [Example 8, (6-methoxy-2-methyl-4-((1-(4-(1,2,3,4-tetrahydroisoquinolin-8-yl)thiophen-2-yl)ethyl)amino)quinazoline-7-yl)(morpholino)methanone] and COc1cc2c(NC(C)c3cc(-c4ccccc4CO)cs3)nc(C)nc2cc1C(=O)N1CCOCC1 (centres unmarked) [Example 14] cannot be ordered by IC50: over 100 nM for the first, over 100 nM for the second.

COc1cc2c(N[C@H](C)c3cc(NC(=O)C(F)(F)F)cc(C(F)(F)F)c3)nc(C)nc2cc1C(=O)N1CCOCC1 [Example 10] and COc1cc2c(N[C@H](C)c3cccc(C(F)(F)F)c3)nc(C)nc2cc1C(=O)N1CCOCC1 [Example 15, (R)-(6-methoxy-2-methyl-4-((1-(3-(trifluoromethyl)phenyl)ethyl)amino)quinazolin-7-yl)(morpholino)methanone] cannot be ordered by IC50: over 100 nM for the first, over 100 nM for the second.

Compared with COc1cc2c(NC(C)c3cc(-c4ccccc4CN(C)C)cs3)nc(C)nc2cc1C(=O)N1CCOCC1 (centres unmarked) [Example 12], COc1cc2c(N[C@H](C)c3cccc(N)c3OC)nc(C)nc2cc1C(=O)N1CCOCC1 [Example 19, (R)-(4-((1-(3-amino-2-methoxyphenyl)ethyl)amino)-6-methoxy-2-methylquinazolin-7-yl)(morpholino)methanone] is higher in IC50: 50 to 100 nM for the first, over 100 nM for the second.

COc1cc2c(N[C@H](C)c3cc(N)cc(C(F)(F)F)c3C)nc(C)nc2cc1C(=O)N1CCOCC1 [Example 16, (R)-(4-((1-(5-amino-2-methyl-3-(trifluoromethyl)phenyl)ethyl)amino)-6-methoxy-2-methylquinazolin-7-yl)(morpholino)methanone] and COc1cc2c(N[C@H](C)c3cc(N)cc(C(F)(F)F)c3F)nc(C)nc2cc1C(=O)N1CCOCC1 [Example 25, (R)-(4-((1-(5-amino-2-fluoro-3-(trifluoromethyl)phenyl)ethyl)amino)-6-methoxy-2-methylquinazolin-7-yl)(morpholino)methanone] cannot be ordered by IC50: 50 to 100 nM for the first, at most 50 nM for the second.

COc1cc2c(N[C@H](C)c3cc(N)cc(F)c3)nc(C)nc2cc1C(=O)N1CCOCC1 [Example 17] and COc1cc2c(N[C@H](C)c3cc(C)cc(N)c3)nc(C)nc2cc1C(=O)N1CCOCC1 [Example 21, (R)-(4-((1-(3-amino-5-methylphenyl)ethyl)amino)-6-methoxy-2-methylquinazolin-7-yl)(morpholino)methanone] cannot be ordered by IC50: at most 50 nM for the first, 50 to 100 nM for the second.

Compared with COc1cc2c(N[C@H](C)c3cc(N)cc(C(F)(F)F)c3)nc(C)nc2cc1C(=O)N1CCS(=O)(=O)CC1 [Example 18, (R)-(4-((1-(3-amino-5-(trifluoromethyl)phenyl)ethyl)amino)-6-methoxy-2-methylquinazolin-7-yl)(1,1-dioxothiomorpholino)methanone], COc1cc2c(N[C@H](C)c3cc(N)cc(C#N)c3)nc(C)nc2cc1C(=O)N1CCOCC1 [Example 22, (R)-3-amino-5-(1-((6-methoxy-2-methyl-7-(morpholine-4 carbonyl)quinazolin-4-yl)amino)ethyl)benzonitrile] is higher in IC50: at most 50 nM for the first, over 100 nM for the second. The first is the more potent here.

COc1cc2c(N[C@H](C)c3cccc4c3CCC4)nc(C)nc2cc1C(=O)N1CCOCC1 [Example 23, (R)-(4-((1-(2,3-dihydro-1H-inden-4-yl)ethyl)amino)-6-methoxy-2-methylquinazolin-7-yl)(morpholino)methanone] and COc1cc2c(N[C@H](C)c3cc(N)cc(C4CC4)c3)nc(C)nc2cc1C(=O)N1CCOCC1 [Example 24, (R)-(4-((1-(3-amino-5-cyclopropylphenyl)ethyl)amino)-6-methoxy-2-methylquinazolin-7-yl)(morpholino)methanone] fall in the same range of IC50: 50 to 100 nM for the first, 50 to 100 nM for the second.
